What all share (format): cell-based
For test [1], the system named is R848-induced IL-6 secretion in human peripheral blood mononuclear cells (PBMCs). The test is described as follows: Inhibition of R848-induced IL-6 secretion in human PBMCs (IL-6 ELISA). The conditions noted are these: PBMC, R848 2.5 μg/mL, 20 h pre-incubation, 24 h stimulation. The procedure: This experiment was carried out in RPMI 1640 medium containing 10% FBS and 1% penicillin/streptomycin, with each of the compounds at an initial test concentration of 1 μM. The compound was dissolved in DMSO to prepare a stock solution, which was serially diluted into a series of working solutions with a 4-fold concentration gradient using the culture medium and then added to a 96-well plate at 10 μL per well. PBMCs (Batch No.: P122101102C; Milecell Biotechnology Inc.) were counted and diluted to a cell concentration of 1.25×10^6 cells/mL, and then added to the aforementioned compound-containing 96-well plate at 160 μL per well. The system was mixed well and incubated in a 5% CO2 incubator at 37° C. for 20 h. Then 10 μL of R848 (final concentration: 2.5 μg/mL) was added, and the culture was continued for 24 h in a 5% CO2 incubator at 37° C. After incubation, the 96-well plate was centrifuged at 2000 rpm for 4 min. The supernatant was collected and diluted 120-fold, then detected using an IL-6 ELISA kit. The OD450 values were read, and converted to IL-6 concentrations based on a standard curve.
Background: An ELISA detects its analyte on a solid surface through an enzyme-linked reagent.

For test [2], the target named is T1, IRAK4 (Homo sapiens, UniProt Q9NWZ3).
T1 construct: Effect of the Compounds on IRAK4 Protein Degradation in THP1 Cells; endogenous in cells; host or cells: THP-1 cells
T1 sequence (Q9NWZ3 1-460): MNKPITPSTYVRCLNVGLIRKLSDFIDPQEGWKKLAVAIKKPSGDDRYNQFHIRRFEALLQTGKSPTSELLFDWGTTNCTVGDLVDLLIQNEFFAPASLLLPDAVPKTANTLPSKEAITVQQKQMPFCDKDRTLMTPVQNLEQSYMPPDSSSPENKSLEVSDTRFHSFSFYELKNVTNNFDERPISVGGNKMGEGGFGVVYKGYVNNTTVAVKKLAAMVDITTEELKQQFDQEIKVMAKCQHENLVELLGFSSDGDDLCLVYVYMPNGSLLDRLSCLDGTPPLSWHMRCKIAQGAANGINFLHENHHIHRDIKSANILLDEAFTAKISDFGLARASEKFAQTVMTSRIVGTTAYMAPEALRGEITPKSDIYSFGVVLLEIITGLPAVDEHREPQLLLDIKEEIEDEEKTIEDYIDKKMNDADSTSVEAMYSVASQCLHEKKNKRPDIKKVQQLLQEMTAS
The test is described as follows: IRAK4 protein degradation in THP1 cells (Western blot). The conditions noted are these: THP-1 cells, 24 h. Put shortly:
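THP-1 cells (2×10^5/well) were treated with 5-fold serial compound dilutions for 24 h at 37 °C, then lysed with proteasome/phosphatase inhibitors. IRAK4 was detected by Western blot with chemiluminescence and semi-quantified by densitometry. DC50 came from the concentration–response.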

In test [3] the test system is LPS/IL-1β-induced IL-6 secretion in human peripheral blood mononuclear cells (PBMCs). In words: Inhibition of LPS/IL-1β-induced IL-6 secretion in human PBMCs (IL-6 ELISA). The conditions noted are these: PBMC, LPS 10 ng/mL + IL-1β 20 ng/mL, 24 h pre-incubation, 20 h stimulation. The method, boiled down:
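IC50 values come from fitted curves of IL-6 levels, determined by ELISA (OD450, standard curve) in supernatants diluted 200-fold. Human PBMCs received 5-fold serial compound dilutions (top 1 μM) for 24 h before a 20 h challenge with final 10 ng/mL LPS and 20 ng/mL IL-1β, 37 °C, 5% CO2.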

SMILES strings stand for the structures. Some results are limits rather than exact numbers.

`CN(C)c1cc2nn([C@H]3CC[C@H](CN4CCC(c5nc6cc(N7CCC(=O)NC7=O)ccc6o5)CC4)CC3)cc2cc1NC(=O)c1cnn2cccnc12` [TM-185] came in with a half-maximal inhibitory concentration (IC50) in test [1] of 8.82 nM. The compound also returned a DC50 in test [2] of 3.22 nM.
Take `CN(C)c1cc2nn([C@H]3CC[C@H](CN4C[C@H](F)[C@@H](n5cc6cc(N7CCC(=O)NC7=O)ccc6n5)C4)CC3)cc2cc1NC(=O)c1cnn2cccnc12` [TM-207]: the values for the IC50 in test [1] and in test [3] were 10.3 nM and 40.9 nM, respectively.
With `CN(C)c1cc2nn([C@H]3CC[C@H](CN4CC[C@H](n5cc6c(F)cc(N7CCC(=O)NC7=O)cc6n5)C4)CC3)cc2cc1NC(=O)c1cnn2cccnc12` [TM-216], in test [1], the IC50 stood at 13.4 nM.
The same measure, in the same setting: the value for `CN(C)c1cc2nn([C@H]3CC[C@H](CN4C[C@@H](F)[C@@H](n5cc6c(F)cc(N7CCC(=O)NC7=O)cc6n5)C4)CC3)cc2cc1NC(=O)c1cnn2cccnc12` [TM-219] was 14.8 nM; that for `CN(C)c1cc2nn([C@H]3CC[C@H](CN4CC[C@@H](n5cc6c(F)cc(C7CCC(=O)NC7=O)cc6n5)C4)CC3)cc2cc1NC(=O)c1cnn2cccnc12` (some centres unmarked) [TM-235] was 6.08 nM.
On the same count and under the same terms, the value for `CN(C)c1cc2nn(C3CCC(CN4C[C@@H](F)[C@@H](n5cc6cc(N7CCC(=O)NC7=O)ccc6n5)C4)CC3)cc2cc1NC(=O)c1cnn2cccnc12` (some centres unmarked) [TM-206] was 5.49 nM; that for `O=C1CCC(c2ccc3cn([C@@H]4CCN(C[C@H]5CC[C@H](n6cc7cc(NC(=O)c8cnn9cccnc89)c(F)cc7n6)CC5)C4)nc3c2)C(=O)N1` (some centres unmarked) [TM-222] was 14 nM.
Take `CN(C)c1cc2nc([C@H]3CC[C@H](CN4CCC(n5cc6c(F)cc(N7CCC(=O)NC7=O)cc6n5)CC4)CC3)cn2nc1NC(=O)c1cnn2cccnc12` [TM-228]: in test [1], the half-maximal inhibitory concentration (IC50) was 14.7 nM.
Same read-out and setting: for `CN(C)c1cc2nn([C@H]3CC[C@H](CN4CC[C@@H](n5cc6c(F)cc(N7CCC(=O)NC7=O)cc6n5)C4)CC3)cc2cc1NC(=O)c1cnn2cccnc12` [TM-217] the value was 8.59 nM; for `CN(C)c1cc2nc([C@H]3CC[C@H](CN4C[C@@H](n5cc6cc(N7CCC(=O)NC7=O)ccc6n5)[C@@H](F)C4)CC3)cn2nc1NC(=O)c1cnn2cccnc12` [TM-229], 19.5 nM; for `CN(C)c1nc2nc([C@H]3CC[C@H](CN4C[C@@H](n5cc6cc(N7CCC(=O)NC7=O)ccc6n5)[C@@H](F)C4)CC3)cn2cc1NC(=O)c1cnn2cccnc12` [TM-236], 22.4 nM.
For `CN(C)c1cc2nn([C@H]3CC[C@H](CN4CCC(c5nc6cc(C7CCC(=O)NC7=O)cc(F)c6o5)CC4)CC3)cc2cc1NC(=O)c1cnn2cccnc12` (some centres unmarked) [TM-238], half-maximal inhibition in test [1] (IC50) required 4.18 nM.
On the same count and under the same terms, the value for `CN(C)c1cc2nn([C@H]3CC[C@H](CN4CC[C@@H](c5nc6cc(N7CCC(=O)NC7=O)ccc6o5)C4)CC3)cc2cc1NC(=O)c1cnn2cccnc12` [TM-226] was 4.28 nM.
For the compound `CN(C)c1cc2nn([C@H]3CC[C@H](CN4C[C@@H](F)[C@@H](n5cc6cc(N7CCC(=O)NC7=O)c(F)cc6n5)C4)CC3)cc2cc1NC(=O)c1cnn2cccnc12` [TM-239], the IC50 in test [1] turned out to be 10.4 nM; in test [3], 7.31 nM.
In test [1], `CN(C)c1cc2nn([C@H]3CC[C@H](CN4CC[C@H](n5cc6ccc(N7CCC(=O)NC7=O)cc6n5)C4)CC3)cc2cc1NC(=O)c1cnn2cccnc12` [TM-197] returned an IC50 of 4.93 nM. The DC50 in test [2] came out at 3.29 nM.
In the same order, the values of `CN(C)c1cc2nc([C@H]3CC[C@H](CN4CCC(n5cc6c(F)cc(N7CCC(=O)NC7=O)cc6n5)CC4)CC3)cn2cc1NC(=O)c1cnn2cccnc12` [TM-231] are 11.6 nM and < 1 nM.
In the same order, the values of `CN(C)c1cc2nn([C@H]3CC[C@H](CN4CC[C@@H](n5cc6ccc(N7CCC(=O)NC7=O)cc6n5)C4)CC3)cc2cc1NC(=O)c1cnn2cccnc12` [TM-198] are 20.8 nM and 0.86 nM.
In test [1], `CN(C)c1cc2nn([C@H]3CC[C@H](CN4C[C@@H](n5cc6cc(N7CCC(=O)NC7=O)c(F)cc6n5)[C@@H](F)C4)CC3)cc2cc1NC(=O)c1cnn2cccnc12` [TM-232] displayed an IC50 of 18.9 nM.
For the compound `CN(C)c1cc2nn([C@H]3CC[C@H](CN4C[C@@H](n5cc6ccc(N7CCC(=O)NC7=O)cc6n5)[C@@H](F)C4)CC3)cc2cc1NC(=O)c1cnn2cccnc12` [TM-199], 25.6 nM corresponded to half-maximal inhibition in test [1] (IC50). In test [2], the 50% degradation concentration (DC50) stood at 0.87 nM.
`CN(C)c1cc2nn([C@@H]3CC[C@@H](CN4CC[C@H](n5cc6c(F)cc(N7CCC(=O)NC7=O)cc6n5)C4)OC3)cc2cc1NC(=O)c1cnn2cccnc12` [TM-224] registered an IC50 in test [1] of 15.5 nM.
Regarding `CN(C)c1cc2nc([C@H]3CC[C@H](CN4C[C@@H](n5cc6cc(N7CCC(=O)NC7=O)ccc6n5)[C@@H](F)C4)CC3)cn2cc1NC(=O)c1cnn2cccnc12` [TM-230], it took 6.97 nM to reach half-maximal inhibition in test [1] (IC50). The compound further returned a DC50 in test [2] of 1.42 nM.
In test [1], `CN(C)c1cc2nn([C@@H]3CC[C@@H](CN4CC[C@@H](n5cc6c(F)cc(N7CCC(=O)NC7=O)cc6n5)C4)OC3)cc2cc1NC(=O)c1cnn2cccnc12` [TM-225] yielded an IC50 of 12.3 nM.
Take `CN(C)c1cc2nn([C@H]3CC[C@H](CN4CCC[C@@H](n5cc6cc(N7CCC(=O)NC7=O)ccc6n5)C4)CC3)cc2cc1NC(=O)c1cnn2cccnc12` [TM-211]: the 50% inhibitory concentration (IC50) in test [1] stood at 1.73 nM. In addition, half-maximal degradation in test [2] (DC50) was put at 3.23 nM.
Consider `CN(C)c1cc2nn([C@H]3CC[C@H](CN4CC[C@H](c5nc6cc(N7CCC(=O)NC7=O)ccc6o5)C4)CC3)cc2cc1NC(=O)c1cnn2cccnc12` [TM-227], for which, in test [1], half-maximal inhibition (IC50) was put at 13.8 nM.
In the case of `CN(C)c1cc2nn([C@H]3CC[C@H](CN4C[C@@H](n5cc6cc(C7CCC(=O)NC7=O)ccc6n5)[C@@H](F)C4)CC3)cc2cc1NC(=O)c1cnn2cccnc12` (some centres unmarked) [TM-234], the IC50 in test [1] amounted to 14.4 nM; in test [3], 8.16 nM.
In test [1], `CN(C)c1cc2nn([C@H]3CC[C@H](CN4C[C@@H](F)[C@@H](n5cc6ccc(N7CCC(=O)NC7=O)cc6n5)C4)CC3)cc2cc1NC(=O)c1cnn2cccnc12` [TM-202] yielded an IC50 of 3.61 nM. For the same compound, the DC50 in test [2] came out at 0.95 nM.
On the same counts, the results for `CN(C)c1cc2nn(C3CCC(CN4C[C@@H](F)[C@H](n5cc6cc(N7CCC(=O)NC7=O)ccc6n5)C4)CC3)cc2cc1NC(=O)c1cnn2cccnc12` (some centres unmarked) [TM-208] are 10.8 nM and 3.77 nM.
Regarding `CN(C)c1cc2nn([C@H]3CC[C@H](CN4C[C@H](F)[C@@H](n5cc6c(F)cc(N7CCC(=O)NC7=O)cc6n5)C4)CC3)cc2cc1NC(=O)c1cnn2cccnc12` [TM-220], the 50% inhibitory concentration (IC50) in test [1] came to 8.1 nM.
`CN(C)c1cc2nn([C@H]3CC[C@H](CN4C[C@H](F)[C@@H](n5cc6cc(C7CCC(=O)NC7=O)ccc6n5)C4)CC3)cc2cc1NC(=O)c1cnn2cccnc12` (some centres unmarked) [TM-243]: the IC50 amounted to 7.67 nM in test [1] and 3.96 nM in test [3].
In the same order, the values of `CN(C)c1cc2nn([C@H]3CC[C@H](CN4C[C@@H](F)[C@H](n5cc6c(F)cc(C7CCC(=O)NC7=O)cc6n5)C4)CC3)cc2cc1NC(=O)c1cnn2cccnc12` (some centres unmarked) [TM-237] are 25 nM and 16.5 nM.
On the same counts, the results for `Cn1c(=O)n(C2CCC(=O)NC2=O)c2cccc(C#CCOC3CCN(C[C@H]4CC[C@H](n5cc(NC(=O)c6cnn7ccc(N8C[C@H]9C[C@@H]8CO9)nc67)c(C(F)F)n5)CC4)CC3)c21` (some centres unmarked) [Positive compound, reference compound] are 12.1 nM and 2.99 nM.
In test [1], `CN(C)c1cc2nn([C@H]3CC[C@H](CN4C[C@@H](n5cc6c(F)cc(N7CCC(=O)NC7=O)cc6n5)[C@@H](F)C4)CC3)cc2cc1NC(=O)c1cnn2cccnc12` [TM-218] had a half-inhibitory concentration (IC50) of 15.6 nM.
The compound `CN(C)c1cc2nn([C@H]3CC[C@H](CN4CC[C@@H](n5cc6cc(C7CCC(=O)NC7=O)ccc6n5)[C@H](F)C4)CC3)cc2cc1NC(=O)c1cnn2cccnc12` (some centres unmarked) [TM-167] gave a 50% inhibitory concentration (IC50) in test [1] of 4.3 nM. In test [2], this compound gave a DC50 of 1.17 nM.
As for `CN(C)c1cc2nn([C@H]3CC[C@H](CN4C[C@H](F)[C@@H](n5cc6cc(F)c(N7CCC(=O)NC7=O)cc6n5)C4)CC3)cc2cc1NC(=O)c1cnn2cccnc12` [TM-223], the midpoint of inhibition in test [1], the IC50, lay at 10.8 nM.

The IC50 is the concentration that gives 50% inhibition. For orientation: DC50 means the midpoint of the concentration-degradation curve. A lower DC50 goes with degradation at low concentration.

The record behind these values is US20260216348A1, “IRAK DEGRADATION AGENT AND USE THEREOF” (Increland, priority 2023, published 2026).
